Test results reported in patent US11603377B2, “MTORC1 modulators and uses thereof” (Aeovian Pharmaceuticals, Inc., priority 2020, dated 2023).

Experiments:
FKBP12 = FKBP12 (Homo sapiens (Human), UniProt P62942); experiment: SPR assay to determine binding affinity to FKBP12 (direct binding); conditions: immobilized biotinylated avi-FKBP12
Description: SPR Assay to Determine Binding Affinity to FKBP12.
Biotinylated avi-FKBP12 was immobilized on a streptavidin chip (Cytiva Series S SA) using a Biacore 8K or 8 k+ (Cytiva). To achieve an immobilization level of 1000 RU, 2 μg/ml biotinylated avi-FKBP12 were injected for 100 sec at a flow rate of 10 μl/min. Rapalogs were diluted in DMSO to 100× working concentration. Each Rapalog was 100-fold diluted in 50 mM HEPES pH 7.5, 150 mM NaCl, 2 mM MgCl2, 1 mM DTT, 0.05% Tween-20 and a serial dilution prepared (9 concentrations, 3-fold dilutions, 0.08-500 nM). […] The compound dilutions were then injected at 100 uL/min for 120 seconds contact time in sequence with increasing concentrations. Dissociation was monitored for 3600 seconds. 50 mM HEPES pH 7.5, 150 mM NaCl, 2 mM MgCl2, 1 mM DTT, 0.05% Tween-20, 1% DMSO was used as running buffer. The single-cycle kinetics data were fit to a 1:1 binding model to measure the association rate ka (1/Ms), the dissociation rate kd (1/s) and the affinity Kd (M).

FKBP51 = FKBP51 (Homo sapiens (Human), UniProt Q13451); experiment: SPR assay to determine binding affinity to FKBP51 (direct binding); conditions: immobilized biotinylated avi-FKBP51
Sequence of FKBP51 (Q13451 whole entry): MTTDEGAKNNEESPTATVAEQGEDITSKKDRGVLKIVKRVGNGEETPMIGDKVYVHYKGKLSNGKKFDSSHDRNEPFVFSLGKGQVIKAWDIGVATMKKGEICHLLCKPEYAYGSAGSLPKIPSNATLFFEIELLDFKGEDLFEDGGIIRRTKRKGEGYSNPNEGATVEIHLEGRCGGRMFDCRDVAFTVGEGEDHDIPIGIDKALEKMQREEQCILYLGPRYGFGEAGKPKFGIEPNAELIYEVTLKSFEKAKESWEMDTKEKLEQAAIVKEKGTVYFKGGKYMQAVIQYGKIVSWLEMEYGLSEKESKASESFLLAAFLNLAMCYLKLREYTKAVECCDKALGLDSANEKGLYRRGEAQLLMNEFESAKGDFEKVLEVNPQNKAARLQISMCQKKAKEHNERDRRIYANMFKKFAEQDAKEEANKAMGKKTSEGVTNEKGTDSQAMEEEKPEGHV
Description: Example 29: SPR Assay to Determine Binding Affinity to FKBP51
Biotinylated avi-FKBP51 was immobilized on a streptavidin chip (Cytiva Series S SA) using a Biacore 8K or 8 k+ (Cytiva). To achieve an immobilization level of 2000 RU, 3 μg/ml biotinylated avi-FKBP51 were injected for 360 sec at a flow rate of 10 μl/min. Rapalogs were diluted in DMSO to 100× working concentration. Each Rapalog was 100-fold diluted in 50 mM HEPES pH 7.5, 150 mM NaCl, 2 mM MgCl2, 1 mM DTT, 0.05% Tween-20 and a serial dilution prepared (8 concentrations, 3-fold dilutions, 0.5-1000 nM). […] The compound dilutions were then injected at 100 uL/min for 120 seconds contact time and with 3600 seconds dissociation time with increasing concentrations. 50 mM HEPES pH 7.5, 150 mM NaCl, 2 mM MgCl2, 1 mM DTT, 0.05% Tween-20, 1% DMSO was used as running buffer. Multi-cycle kinetics data were fit to a 1:1 binding model to measure the association rate ka (1/Ms), the dissociation rate kd (1/s) and the affinity Kd (M).

[1] = target: FKBP12 / FRB ternary complex (Homo sapiens (Human), UniProt P42345+P62942); experiment: SPR assay to characterize ternary complex formation with FKBP12 (FRB binding to rapalog-saturated FKBP12); conditions: FRB dilutions with 100 nM rapalog on immobilized FKBP12
Description: Example 30: SPR Assay to Characterize Ternary Complex Formation with FKBP12
(§1) Biotinylated avi-FKBP12 was immobilized on a streptavidin chip (Cytiva Series S SA) using a Biacore 8K or 8 k+ (Cytiva). To achieve an immobilization level of 100 RU, 0.3 μg/ml biotinylated avi-FKBP12 were injected for 80 sec at a flow rate of 10 μl/min. Serial dilution of FRB was prepared (12 concentrations, 3-fold dilutions, 0.00011-20 μM) and supplemented with 100 nM of rapalog. A-B-A injection mode was used to ensure saturation immobilized FKBP12 with respective rapalog. 100 nM solution of the respective rapalog was injected before FRB injection for 120 sec and during dissociation for 420 sec. The FRB dilutions were then injected 120 seconds contact time with increasing concentrations. […] 50 mM HEPES pH 7.5, 150 mM NaCl, 2 mM MgCl2, 1 mM DTT, 0.05% Tween-20, 1% DMSO was used as running buffer at a flow rate of 30 μl/min. The multi-cycle kinetics data were fit to a 1:1 binding model to measure the association rate ka (1/Ms), the dissociation rate kd (1/s) and the affinity Kd (M). In case of fast association and dissociation, steady state affinity analysis following the law of mass action was used to determine the affinity Kd (M).

[2] = target: FKBP51 / FRB ternary complex (Homo sapiens (Human), UniProt P42345+Q13451); experiment: SPR assay to characterize ternary complex formation with FKBP51 (FRB binding to rapalog-saturated FKBP51); conditions: FRB dilutions with 100 nM rapalog on immobilized FKBP51
Description: Example 31: SPR Assay to Characterize Ternary Complex Formation with FKBP51
as §1, with “Biotinylated avi-FKBP51” for “Biotinylated avi-FKBP12”, “of 200” for “of 100”, “RU, 0.6” for “RU, 0.3”, “biotinylated avi-FKBP51” for “biotinylated avi-FKBP12”, “for 150” for “for 80”

mTORC1 = mTORC1 (Homo sapiens (Human), UniProt P42345+P62942); experiment: mTORC1 inhibition, AlphaLISA of Phospho-p70 S6 kinase (p70S6K pT389) in PC-3 cells; type: cell-based; conditions: inhibition of p70S6K pT389 levels
mTORC2 = mTORC2 (Homo sapiens (Human), UniProt P42345+P62942); experiment: mTORC2 inhibition, AlphaLISA of Phospho-AKT (pAKT pS473) in PC3 cells; type: cell-based
Description: Example 32: mTORC1 Inhibition, mTORC2 Inhibition, Cell Lysis, AlphaLISA Experiments, and Data Analysis
mTORC2 inhibition was determined via analysis of phosphorylation level of Phospho-AKT (pAKT pS473) with the corresponding AlphaLISA kit (PerkinElmer, Alpha SF Ultra™ Multiplex p-AKT1/2/3(Ser473)/Total AKT1). PC3 cells were plated on 96 well plates in assay medium (DMEM: Ham's F12, basic (CLS Cell Lines Service GmbH, Cat #820400a), supplemented with additional 10% FBS at 1.20E+06 cells/mL and incubated over-night at 37° C., 5% CO2. On the following day, cells were treated with assay medium (10% FBS) containing increasing compound concentrations (12 points at 3-fold dilutions) and incubated for 6 hours at 37° C., 5% CO2. Thereafter, medium was aspirated and cells were rinsed with PBS. In the following, cells were treated with compound dilutions in starvation medium (DMEM: Ham's F12, basic; without FBS) for further 18 h at 37° C., 5% CO2. Then, immediately prior to cell lysis, cells were treated with 12% FBS for 15 min.
After performing experiments according to mTORC1 and mTORC2 protocols, cells were harvested in lysis buffer supplied with the AlphaLISA kits, additionally enriched with Roche cOmplete™ Protease Inhibitor Cocktail (Cat #CO-RO). Thus, cells were lysed using 50 μL of the lysis buffer and incubated for 60 min at 4° C. while shaking. After centrifugation at 4000 rpm for 5 min, experiments were performed according to the AlphaLISA manufacturer's protocol.
Ten microliters of cell lysates were mixed with the acceptor mix. After incubation for 2 h at room temperature, the donor mix was added. After additional incubation at room temperature for 2 hours, AlphaLISA signal was read on PHERAstar® FSX (BMG Labtech) with AlphaPLEX module.
EC50 values were calculated by ExcelFit standard algorithm.

Sequence of FKBP12 (P62942 whole entry): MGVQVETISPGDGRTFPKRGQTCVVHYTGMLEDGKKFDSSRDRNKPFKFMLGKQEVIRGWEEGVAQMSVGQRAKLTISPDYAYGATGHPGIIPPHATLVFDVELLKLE

Row | SMILES | Kd (FKBP12) [nM] | Kd (FKBP51) [nM] | Kd [1] [nM] | Kd [2] [nM] | IC50 (mTORC1) [nM] | mTORC2 % inhibition at 1 uM (mTORC2)
1 | CO[C@@H]1C[C@H](C[C@@H](C)[C@@H]2CC(=O)[C@H](C)/C=C(\C)[C@@H](O)[C@@H](OC)C(=O)[C@H](C)C[C@H](C)/C=C/C=C/C=C(\C)[C@H](NS(=O)(=O)CC3CCCCC3)C[C@@H]3CC[C@@H](C)[C@@](O)(O3)C(=O)C(=O)N3CCCC[C@H]3C(=O)O2)CC[C@H]1O [Compound 19] | 0.3 to 1 | > 100 | > 800 | > 800 | > 0.8 | B (B>20% and less than 40% inhibition at 1 uM)
2 | CO[C@@H]1C[C@H](C[C@@H](C)[C@@H]2CC(=O)[C@H](C)/C=C(\C)[C@@H](O)[C@@H](OC)C(=O)[C@H](C)C[C@H](C)/C=C/C=C/C=C(\C)[C@@H](NS(=O)(=O)CC3CCCCC3)C[C@@H]3CC[C@@H](C)[C@@](O)(O3)C(=O)C(=O)N3CCCC[C@H]3C(=O)O2)CC[C@H]1O [Compound 20] | < 0.3 | > 100 | 300 to 800 | > 800 | 0.1 to 0.8 | B (B>20% and less than 40% inhibition at 1 uM)
3 | COCCOCCOCCS(=O)(=O)N[C@H]1C[C@@H]2CC[C@@H](C)[C@@](O)(O2)C(=O)C(=O)N2CCCC[C@H]2C(=O)O[C@H]([C@H](C)C[C@@H]2CC[C@@H](O)[C@H](OC)C2)CC(=O)[C@H](C)/C=C(\C)[C@@H](O)[C@@H](OC)C(=O)[C@H](C)C[C@H](C)/C=C/C=C/C=C/1C [Compound 25] | < 0.3 | 10 to 100 | 300 to 800 | > 800 | 0.1 to 0.8 | A (A ≤20% inhibition at 1 micro Molar (uM))
4 | CO[C@@H]1C[C@H](C[C@@H](C)[C@@H]2CC(=O)[C@H](C)/C=C(\C)[C@@H](O)[C@@H](OC)C(=O)[C@H](C)C[C@H](C)/C=C/C=C/C=C(\C)[C@@H](OC3CCS(=O)(=O)C3)C[C@@H]3CC[C@@H](C)[C@@](O)(O3)C(=O)C(=O)N3CCCC[C@H]3C(=O)O2)CC[C@H]1O (stereo partly drawn) [Compound 26] | < 0.3 | > 100 | > 800 | > 800 | > 0.8 | A (A ≤20% inhibition at 1 micro Molar (uM))

Now from value to compound, other results behind:

Row | Kd (FKBP12) [nM] | Kd (FKBP51) [nM] | Kd [1] [nM] | Kd [2] [nM] | IC50 (mTORC1) [nM] | SMILES | mTORC2 % inhibition at 1 uM (mTORC2)
5 | 0.3 to 1 | 10 to 100 | 300 to 800 | 300 to 800 | 0.1 to 0.8 | COC1C(=O)C(C)CC/C=C/C=C/C=C(\C)[C@@H](NS(=O)(=O)CCO)C[C@H]2CC[C@H](C)[C@](O)(O2)C(=O)C(=O)N(C)C(C)C(=O)OC([C@H](C)C[C@@H]2CC[C@@H](OC3CC3)[C@H](OC)C2)CC(=O)C(C)/C=C(\C)C1O (stereo partly drawn) [Compound 11] | A (A ≤20% inhibition at 1 micro Molar (uM))
6 | 0.3 to 1 | 10 to 100 | 300 to 800 | 300 to 800 | > 0.8 | CCOC(=O)CS(=O)(=O)NC1C[C@H]2CC[C@H](C)[C@](O)(O2)C(=O)C(=O)N(C)C(C)C(=O)OC([C@H](C)C[C@@H]2CC[C@@H](OC3CC3)[C@H](OC)C2)CC(=O)C(C)/C=C(\C)C(O)C(OC)C(=O)C(C)CC/C=C/C=C/C=C/1C (stereo partly drawn) [Compound 12] | A (A ≤20% inhibition at 1 micro Molar (uM))
7 | 0.3 to 1 | 10 to 100 | 300 to 800 | 300 to 800 | 0.1 to 0.8 | COC1C(=O)C(C)CC/C=C/C=C/C=C(\C)C(NS(=O)(=O)CCCS(=O)(=O)O)C[C@H]2CC[C@H](C)[C@](O)(O2)C(=O)C(=O)N(C)C(C)C(=O)OC([C@H](C)C[C@@H]2CC[C@@H](OC3CC3)[C@H](OC)C2)CC(=O)C(C)/C=C(\C)C1O (stereo partly drawn) [Compound 18] | A (A ≤20% inhibition at 1 micro Molar (uM))
8 | < 0.3 | > 100 | > 800 | > 800 | 0.1 to 0.8 | CO[C@@H]1C[C@H](C[C@@H](C)[C@@H]2CC(=O)[C@H](C)/C=C(\C)[C@@H](O)[C@@H](OC)C(=O)[C@H](C)C[C@H](C)/C=C/C=C/C=C(\C)[C@H](NS(=O)(=O)CC3CCCC3)C[C@@H]3CC[C@@H](C)[C@@](O)(O3)C(=O)C(=O)N3CCCC[C@H]3C(=O)O2)CC[C@H]1O [Compound 22] | A (A ≤20% inhibition at 1 micro Molar (uM))
9 | < 0.3 | 10 to 100 | > 800 | > 800 | > 0.8 | CO[C@@H]1C[C@H](C[C@@H](C)[C@@H]2CC(=O)[C@H](C)/C=C(\C)[C@@H](O)[C@@H](OC)C(=O)[C@H](C)C[C@H](C)/C=C/C=C/C=C(\C)[C@@H](NS(=O)(=O)CC3CCCC3)C[C@@H]3CC[C@@H](C)[C@@](O)(O3)C(=O)C(=O)N3CCCC[C@H]3C(=O)O2)CC[C@H]1O [Compound 23] | A (A ≤20% inhibition at 1 micro Molar (uM))
